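96-well plates; 48 h exposure; 5 concentrations. Endpoints by linear interpolation between flanking doses. Not reached: highest tested concentration assigned. GI50: concentration for 50% inhibition of growth.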 The source made the active and inactive calls. No stated cut-off is given here; in the data, active = GI50 up to about 1.1 µM and inactive = higher.
Tests used:
Assay in all cases: inhibition of tumour cell growth, NCI panel, 48 h
[1] = tested on: DU-145
[2] = tested on: HCC 2998
[3] = tested on: Hs-578T
[4] = tested on: NCI-H23
[5] = tested on: Malme-3M
[6] = tested on: A498
[7] = tested on: NCI-H460
[8] = tested on: SN12C
[9] = tested on: IGROV-1
[10] = tested on: UO-31
[11] = tested on: EKVX
[12] = tested on: M14
[13] = tested on: U-251
[14] = tested on: HCT-15
[15] = tested on: OVCAR-5
[16] = tested on: SK-MEL-28
[17] = tested on: HOP-92
[18] = tested on: KM12
[19] = tested on: NCI-H522
[20] = tested on: BT-549

Row | Compound | GI50 [1] | GI50 [2] | GI50 [3] | GI50 [4] | GI50 [5] | GI50 [6] | GI50 [7] | GI50 [8] | GI50 [9] | GI50 [10] | GI50 [11] | GI50 [12] | GI50 [13] | GI50 [14] [µM] | GI50 [15] | GI50 [16] | GI50 [17] | GI50 [18] | GI50 [19] | GI50 [20]
1 | COc1cc2c(cc1C)NC(=O)/C2=C/c1c(Cl)[nH]c2cc(C)c(OC)cc12 | 2.36 µM (inactive) | 4.11 µM (inactive) | 8.65 µM (inactive) | 1.91 µM (inactive) | 11.5 µM (inactive) | 8.73 µM (inactive) | 0.774 µM (active) | 1.86 µM (inactive) | 1.32 µM (inactive) | 10 µM (inactive) | 8.04 µM (inactive) | 2.15 µM (inactive) | 2.86 µM (inactive) | 3.72 | 7.78 µM (inactive) | 8.13 µM (inactive) | 10.3 µM (inactive) | 4.22 µM (inactive) | 5.25 µM (inactive) | 1.36 µM (inactive)
2 | COc1ccc(/C=N/n2c(Cc3ccc(Cl)cc3)n[nH]c2=O)c(OC)c1 | 67.8 µM (inactive) | 44.6 µM (inactive) | 14.3 µM (inactive) | 29.4 µM (inactive) | > 100 µM (inactive) | 20.4 µM (inactive) | > 100 µM (inactive) | > 10 µM (inactive) | 20.8 µM (inactive) | > 100 µM (inactive) | 33.1 µM (inactive) | 94.8 µM (inactive) | 32.2 µM (inactive) | 36.3 | 38.3 µM (inactive) | 80 µM (inactive) | 29.2 µM (inactive) | 27.3 µM (inactive) | 16 µM (inactive) | 35.2 µM (inactive)
3 | O=C1c2ccccc2CN1c1ccc(O)cc1 | > 100 µM (inactive) | > 100 µM (inactive) | > 100 µM (inactive) | > 100 µM (inactive) | > 100 µM (inactive) | > 100 µM (inactive) | > 100 µM (inactive) | > 100 µM (inactive) | > 100 µM (inactive) | – | > 100 µM (inactive) | > 100 µM (inactive) | > 100 µM (inactive) | > 100 | > 100 µM (inactive) | > 100 µM (inactive) | > 100 µM (inactive) | > 100 µM (inactive) | > 100 µM (inactive) | > 100 µM (inactive)
4 | O=C(N/N=C(COc1cccc(Cl)c1)\N=C\c1cccnc1)c1ccncc1 | > 100 µM (inactive) | > 100 µM (inactive) | 83.4 µM (inactive) | > 100 µM (inactive) | > 100 µM (inactive) | 40.6 µM (inactive) | > 100 µM (inactive) | > 100 µM (inactive) | > 100 µM (inactive) | – | > 100 µM (inactive) | > 100 µM (inactive) | > 100 µM (inactive) | > 100 | > 100 µM (inactive) | > 100 µM (inactive) | 24.9 µM (inactive) | > 100 µM (inactive) | 63.7 µM (inactive) | > 100 µM (inactive)
5 | COc1cccc2c1C(=O)c1c(O)c3c(c(O)c1C2=O)CC(O)(C(O)CO)CC3OC1CC(N2CCOCC2)C(O)C(C)O1 (stereo not drawn) | 0.00703 µM (active) | < 0.001 µM (active) | 0.0146 µM (active) | 0.00464 µM (active) | 0.00251 µM (active) | 0.00135 µM (active) | < 0.001 µM (active) | 0.00205 µM (active) | 0.00279 µM (active) | – | 0.00386 µM (active) | 0.00295 µM (active) | 0.0047 µM (active) | 0.00353 | 0.00475 µM (active) | 0.00406 µM (active) | 0.065 µM (active) | 0.00551 µM (active) | 0.00273 µM (active) | 0.0294 µM (active)
6 | Cc1ccccc1/N=N/c1c(O)c(S(=O)(=O)O)cc2cc(S(=O)(=O)O)ccc12 | > 100 µM (inactive) | > 100 µM (inactive) | > 100 µM (inactive) | > 100 µM (inactive) | > 100 µM (inactive) | > 100 µM (inactive) | > 100 µM (inactive) | > 100 µM (inactive) | > 100 µM (inactive) | > 100 µM (inactive) | > 100 µM (inactive) | > 100 µM (inactive) | > 100 µM (inactive) | > 100 | > 100 µM (inactive) | > 100 µM (inactive) | > 100 µM (inactive) | > 100 µM (inactive) | > 100 µM (inactive) | > 100 µM (inactive)
7 | C=CCc1oc(C)nc1CCCC | > 100 µM (inactive) | > 100 µM (inactive) | > 100 µM (inactive) | > 100 µM (inactive) | > 100 µM (inactive) | > 100 µM (inactive) | > 100 µM (inactive) | > 100 µM (inactive) | > 100 µM (inactive) | > 100 µM (inactive) | > 100 µM (inactive) | > 100 µM (inactive) | > 100 µM (inactive) | > 100 | > 100 µM (inactive) | > 100 µM (inactive) | > 100 µM (inactive) | > 100 µM (inactive) | > 100 µM (inactive) | > 100 µM (inactive)
8 | Fc1cc(F)c(F)c(S)c1F | > 100 µM (inactive) | 34.4 µM (inactive) | 37.5 µM (inactive) | > 100 µM (inactive) | > 100 µM (inactive) | 17.5 µM (inactive) | > 100 µM (inactive) | 20.4 µM (inactive) | > 100 µM (inactive) | > 100 µM (inactive) | 25.9 µM (inactive) | > 100 µM (inactive) | > 100 µM (inactive) | 59.6 | > 100 µM (inactive) | > 100 µM (inactive) | > 100 µM (inactive) | > 100 µM (inactive) | 15.5 µM (inactive) | 26 µM (inactive)
9 | C[C@@H]1Nc2cc(NC(=O)OCCF)nc(N)c2N=C1c1ccccc1 | < 0.0001 µM (active) | < 0.01 µM (active) | < 0.0001 µM (active) | < 0.0001 µM (active) | 0.111 µM (active) | 19.8 µM (inactive) | < 0.0001 µM (active) | < 0.0001 µM (active) | < 0.0001 µM (active) | 21.5 µM (inactive) | < 0.0001 µM (active) | < 0.0001 µM (active) | < 0.0001 µM (active) | < 0.0001 | < 0.0001 µM (active) | 88.7 µM (inactive) | > 100 µM (inactive) | < 0.0001 µM (active) | < 0.0001 µM (active) | 84.1 µM (inactive)
10 | Cc1ccc(-c2c3nc(c(-c4ccc(C)cc4)c4ccc([nH]4)c(-c4ccc(OCC5COC(C)(C)O5)cc4)c4nc(c(-c5ccc(C)cc5)c5ccc2[nH]5)C=C4)C=C3)cc1 (stereo not drawn) | > 31.6 µM (inactive) | > 31.6 µM (inactive) | 10.3 µM (inactive) | > 31.6 µM (inactive) | > 31.6 µM (inactive) | 1.13 µM (inactive) | > 31.6 µM (inactive) | > 31.6 µM (inactive) | > 31.6 µM (inactive) | > 31.6 µM (inactive) | 13.5 µM (inactive) | > 31.6 µM (inactive) | > 31.6 µM (inactive) | > 31.6 | > 31.6 µM (inactive) | > 31.6 µM (inactive) | > 100 µM (inactive) | > 31.6 µM (inactive) | > 31.6 µM (inactive) | > 100 µM (inactive)
11 | CC(=O)Oc1cc2c(n(C)c1=O)-c1ccccc1C2 | > 100 µM (inactive) | 85.9 µM (inactive) | 65 µM (inactive) | 75.5 µM (inactive) | 31.8 µM (inactive) | 97.7 µM (inactive) | 43.8 µM (inactive) | > 100 µM (inactive) | 36.2 µM (inactive) | 41 µM (inactive) | – | 93.3 µM (inactive) | 75.9 µM (inactive) | 28.1 | > 100 µM (inactive) | > 100 µM (inactive) | 46.7 µM (inactive) | > 100 µM (inactive) | 15.9 µM (inactive) | 46.1 µM (inactive)
12 | O=C(O)CCC(NC(=O)/C(=C/c1ccccc1)NC(=O)c1ccccc1)C(=O)O (stereo not drawn) | > 100 µM (inactive) | > 100 µM (inactive) | > 100 µM (inactive) | > 100 µM (inactive) | > 100 µM (inactive) | > 100 µM (inactive) | > 100 µM (inactive) | > 100 µM (inactive) | > 100 µM (inactive) | > 100 µM (inactive) | > 100 µM (inactive) | > 100 µM (inactive) | – | > 100 | > 100 µM (inactive) | > 100 µM (inactive) | > 100 µM (inactive) | > 100 µM (inactive) | > 100 µM (inactive) | > 100 µM (inactive)
13 | CCOC(=O)CCC(NC(=O)c1ccc(Nc2nc3ccccc3nc2C(=O)OCC)s1)C(=O)OCC (stereo not drawn) | > 100 µM (inactive) | > 100 µM (inactive) | 56.4 µM (inactive) | – | > 100 µM (inactive) | > 100 µM (inactive) | > 100 µM (inactive) | > 100 µM (inactive) | > 100 µM (inactive) | > 100 µM (inactive) | > 100 µM (inactive) | > 100 µM (inactive) | > 100 µM (inactive) | > 100 | > 100 µM (inactive) | > 100 µM (inactive) | > 100 µM (inactive) | 85.1 µM (inactive) | > 100 µM (inactive) | 46 µM (inactive)
14 | C/C(CC(O)(C(F)(F)F)C(F)(F)F)=N\O | > 10 µM (inactive) | > 10 µM (inactive) | > 10 µM (inactive) | > 10 µM (inactive) | > 10 µM (inactive) | > 10 µM (inactive) | > 10 µM (inactive) | > 10 µM (inactive) | > 10 µM (inactive) | – | > 10 µM (inactive) | > 10 µM (inactive) | > 10 µM (inactive) | > 10 | > 10 µM (inactive) | > 10 µM (inactive) | > 10 µM (inactive) | > 10 µM (inactive) | > 10 µM (inactive) | > 10 µM (inactive)

— ChEMBL document CHEMBL1201862, “PubChem BioAssay data set” (2004)
